Reference: patent US20070207952A1, “Long Acting Biologically Active Conjugates” (priority 2003, published 2007)
Where a SMILES comes first, the peptide text is derived from it. [ ]: non-standard residue; d: D form. The star is where a group is joined. Propanoyl(3-maleimido) = O=C1C=CC(=O)N1CCC(=O)*; Nle = CCCC[C@H](N)C(=O)O; AEEA = NCCOCCOCC(=O)O

Tests used:
HBX2 HIV-1 = assay: Antiviral cytotoxicity assay with MT4 cells, modified peptides and conjugates; format: cell-based; settings: HBX2 HIV-1, MT4 cells; average of 2-3 experiments
Procedure: (§1) Antiviral potency of the peptides was analyzed against HIV-1 HXB2 or NLA-3 strains using a cytotoxicity assay with MT4 cells as previously described (ref 1-3) with minor modifications. MT-4 cells (1.5×10^4/ml) were exposed to 200 50% tissue culture infective doses (TCID50) of viruses in the presence of various concentrations of test compound in 96 well microtiter plates and incubated at 37° C. for 5 days. Cytotoxicity of HIV was measured by the addition of 3-(4,5-dimethylthiazol-2-yl)-2,5-diphenytetrazolium bromide (MMI) solution to each well to a final concentration of 0.75 mg/ml, and incubation for 1 hour a 37° C. After incubation, cells were dissolved in isopropanoyrriton-X 100/HCl (1000:50:25) solution. Absorbance was monitored in a microplate reader (Spectramax, Molecular Devices) at 540 rm and 690 nm. MT-4 cells were obtained from the AIDS Research and Reference Reagent Program (ARRRP, Division of AIDS, NIAID, NIH: MT-4 from Dr. D. Richman). Cells were propagated in RPMI 1640 growth medium supplemented with 10% fetal bovine serum, 50U of penicillin and 50 μg of streptomycin per ml ([Ivitrogen, Carlsbad Calif.).

HIV NL4-3 = assay: Antiviral cytotoxicity (MTT) assay with MT4 cells, HIV NL4-3; format: cell-based, HIV-1; settings: MT-4 cells, 5 days, average of 2 or 3 experiments
Procedure: as §1

HIV-1 IIIB = assay: Antiviral cytotoxicity (MTT) assay with MT4 cells, HIV-1 IIIB; format: cell-based; settings: MT-4 cells, 5 days, average of 2 or 3 experiments
[1] = Kilby et al 1998; cited from earlier work

Compound | IC50 (HBX2 HIV-1) | IC50 (HIV NL4-3) | IC50 (HIV-1 IIIB) | half-life [1]
CCCC[C@H](NC(=O)[C@H](Cc1c[nH]c2ccccc12)NC(=O)COCCOCCNC(=O)CCN1C(=O)C=CC1=O)C(=O)N[C@@H](CCC(=O)O)C(=O)N[C@@H](Cc1c[nH]c2ccccc12)C(=O)N[C@@H](CC(=O)O)C(=O)N[C@@H](CCCNC(=N)N)C(=O)N[C@@H](CCCCN)C(=O)N[C@H](C(=O)N[C@@H](CCC(=O)O)C(=O)N[C@@H](CCC(=O)O)C(=O)N[C@@H](Cc1ccc(O)cc1)C(=O)N[C@H](C(=O)N[C@@H](CCCCN)C(=O)N[C@@H](CCCCN)C(=O)N[C@H](C(=O)N[C@@H](CCCCN)C(=O)N[C@@H](CCCCN)C(=O)N[C@@H](CC(C)C)C(=O)N[C@H](C(=O)N[C@@H](CCC(=O)O)C(=O)N[C@@H](CCC(=O)O)C(=O)N[C@@H](CO)C(=O)N[C@@H](CCC(N)=O)C(=O)N[C@@H](CCC(=O)O)C(=O)N[C@@H](CCC(N)=O)C(=O)N[C@@H](CCC(N)=O)C(=O)N[C@@H](CCC(=O)O)C(=O)N[C@@H](CCCCN)C(=O)N[C@@H](CC(N)=O)C(=O)N[C@@H](CCC(=O)O)C(=O)N[C@@H](CCCCN)C(=O)N[C@@H](CCC(=O)O)C(=O)N[C@@H](CC(C)C)C(=O)N[C@@H](CCCCN)C(N)=O)[C@@H](C)CC)[C@@H](C)CC)[C@@H](C)O)[C@@H](C)CC [SPI-70038] ({Propanoyl(3-maleimido)-AEEA}-W[Nle]EWDRKIEEYTKKIKKLIEESQEQQEKNEKELK-NH2) | 2 nM |  |  | 
CCCC[C@H](NC(=O)[C@H](Cc1c[nH]c2ccccc12)NC(C)=O)C(=O)N[C@@H](CCC(=O)O)C(=O)N[C@@H](Cc1c[nH]c2ccccc12)C(=O)N[C@@H](CC(=O)O)C(=O)N[C@@H](CCCNC(=N)N)C(=O)N[C@@H](CCCCN)C(=O)N[C@H](C(=O)N[C@@H](CCC(=O)O)C(=O)N[C@@H](CCC(=O)O)C(=O)N[C@@H](Cc1ccc(O)cc1)C(=O)N[C@H](C(=O)N[C@@H](CCCCN)C(=O)N[C@@H](CCCCN)C(=O)N[C@H](C(=O)N[C@@H](CCCCN)C(=O)N[C@@H](CCCCN)C(=O)N[C@@H](CC(C)C)C(=O)N[C@H](C(=O)N[C@@H](CCC(=O)O)C(=O)N[C@@H](CCC(=O)O)C(=O)N[C@@H](C)C(=O)N[C@@H](CCC(N)=O)C(=O)N[C@@H](CCC(=O)O)C(=O)N[C@@H](CCC(N)=O)C(=O)N[C@@H](CCC(N)=O)C(=O)N[C@@H](CCC(=O)O)C(=O)N[C@@H](CCCCN)C(=O)N[C@@H](CC(N)=O)C(=O)N[C@@H](CCC(=O)O)C(=O)N[C@@H](CCCCN)C(=O)N[C@@H](CCC(=O)O)C(=O)N[C@@H](CC(C)C)C(=O)N[C@@H](CCCCN)C(N)=O)[C@@H](C)CC)[C@@H](C)CC)[C@@H](C)O)[C@@H](C)CC [peptide 8, Ac-WXEWDRKIEEYTKKIKKLIEEAQEQQEKNEKELK-NH2] (Ac-W[Nle]EWDRKIEEYTKKIKKLIEEAQEQQEKNEKELK-NH2) |  | 1.2 nM | 2.6 nM | 
CCCC[C@H](NC(=O)[C@H](Cc1c[nH]c2ccccc12)NC(C)=O)C(=O)N[C@@H](CCC(=O)O)C(=O)N[C@@H](Cc1c[nH]c2ccccc12)C(=O)N[C@@H](CC(=O)O)C(=O)N[C@@H](CCCNC(=N)N)C(=O)N[C@@H](CCCCN)C(=O)N[C@H](C(=O)N[C@@H](CCC(=O)O)C(=O)N[C@@H](CCC(=O)O)C(=O)N[C@@H](Cc1ccc(O)cc1)C(=O)N[C@H](C(=O)N[C@@H](CCCCN)C(=O)N[C@@H](CCCCN)C(=O)N[C@H](C(=O)N[C@@H](CCC(=O)O)C(=O)N[C@@H](CCC(=O)O)C(=O)N[C@@H](CC(C)C)C(=O)N[C@H](C(=O)N[C@@H](CCCCN)C(=O)N[C@@H](CCCCN)C(=O)N[C@@H](CO)C(=O)N[C@@H](CCC(N)=O)C(=O)N[C@@H](CCC(=O)O)C(=O)N[C@@H](CCC(N)=O)C(=O)N[C@@H](CCC(N)=O)C(=O)N[C@@H](CCC(=O)O)C(=O)N[C@@H](CCCCN)C(=O)N[C@@H](CC(N)=O)C(=O)N[C@@H](CCC(=O)O)C(=O)N[C@@H](CCCCN)C(=O)N[C@@H](CCC(=O)O)C(=O)N[C@@H](CC(C)C)C(=O)N[C@@H](CCCCN)C(N)=O)[C@@H](C)CC)[C@@H](C)CC)[C@@H](C)O)[C@@H](C)CC [peptide 9, Ac-WXEWDRKIEEYTKKIEELIKKSQEQQEKNEKELK-NH2] (Ac-W[Nle]EWDRKIEEYTKKIEELIKKSQEQQEKNEKELK-NH2) |  | 0.9 nM | 1.7 nM | 
CCCC[C@H](NC(=O)[C@H](Cc1c[nH]c2ccccc12)NC(C)=O)C(=O)N[C@@H](CCC(=O)O)C(=O)N[C@@H](Cc1c[nH]c2ccccc12)C(=O)N[C@@H](CC(=O)O)C(=O)N[C@@H](CCCNC(=N)N)C(=O)N[C@@H](CCCCN)C(=O)N[C@H](C(=O)N[C@@H](CCC(=O)O)C(=O)N[C@@H](CCC(=O)O)C(=O)N[C@@H](Cc1ccc(O)cc1)C(=O)N[C@H](C(=O)N[C@@H](CCCCN)C(=O)N[C@@H](CCCCN)C(=O)N[C@H](C(=O)N[C@@H](CCC(=O)O)C(=O)N[C@@H](CCC(=O)O)C(=O)N[C@@H](CC(C)C)C(=O)N[C@H](C(=O)N[C@@H](CCCCN)C(=O)N[C@@H](CCCCN)C(=O)N[C@@H](C)C(=O)N[C@@H](CCC(N)=O)C(=O)N[C@@H](CCC(=O)O)C(=O)N[C@@H](CCC(N)=O)C(=O)N[C@@H](CCC(N)=O)C(=O)N[C@@H](CCC(=O)O)C(=O)N[C@@H](CCCCN)C(=O)N[C@@H](CC(N)=O)C(=O)N[C@@H](CCC(=O)O)C(=O)N[C@@H](CCCCN)C(=O)N[C@@H](CCC(=O)O)C(=O)N[C@@H](CC(C)C)C(=O)N[C@@H](CCCCN)C(N)=O)[C@@H](C)CC)[C@@H](C)CC)[C@@H](C)O)[C@@H](C)CC [peptide 11, Ac-WXEWDRKIEEYTKKIEELIKKAQEQQEKNEKELK-NH2] (Ac-W[Nle]EWDRKIEEYTKKIEELIKKAQEQQEKNEKELK-NH2) |  | 1.1 nM | 2.1 nM | 
enfuvirtide |  | 120 nM | 4.7 nM | 1.8 h
